Assay results: patent publication US20100239563A1 (priority 2001, published 2010)

Assays:
[1] = tested on: influenza A virus strain fowl plague virus A/Fpv/Bratislava/79; format: cell-based
[2] = tested on: influenza A virus strain fowl plague virus A/Fpv/Bratislava/79 (H7N7); format: cell-based

SMILES | virus multiplication vs cells not treated with SB202190 [1] | virus multiplication vs cells not treated with U0126 [2]
Oc1ccc(-c2nc(-c3ccc(F)cc3)c(-c3ccncc3)[nH]2)cc1 [SB202190, 4-(4-fluorophenyl)-2-(4-hydroxyphenyl)-5-(4-pyridyl) 1H-imidazole] | significantly inhibited | –
N#CC(=C(N)Sc1ccccc1N)C(C#N)=C(N)Sc1ccccc1N [U0126, 1,4-diamino-2,3-dicyano-1,4-bis(2-aminophenylthio)butadiene] | – | significantly inhibited
